Results from patent USRE39591E1, “6-O-substituted ketolides having antibacterial activity” (Abbott Laboratories, priority 1996, dated 2007).

Tested on: up to 32 different microorganisms
Assay: in vitro antibacterial activity (MIC), agar dilution on Brain Heart Infusion (BHI) agar with Steers replicator
Assay type: cell-based
Conditions: unit assumed
Experimental: Representative compounds of the present invention were assayed in vitro for antibacterial activity as follows: Twelve petri dishes containing successive aqueous dilutions of the test compound mixed with 10 mL of sterilized Brain Heart Infusion (BHI) agar (Difco 0148-01-5) were prepared. Each plate was inoculated with 1:100 (or 1:10 for slow-growing strains, such as Micrococcus and Streptococcus) dilutions of up to 32 different microorganisms, using a Steers replicator block. The inoculated plates were incubated at 35°-37° C. for 20 to 24 hours. In addition, a control plate, using BHI agar containing no test compound, was prepared and incubated at the beginning and end of each test.
An additional plate containing a compound having known susceptibility patterns for the organisms being tested and belonging to the same antibiotic class as the test compound was also prepared and incubated as a further control, as well as to provide test-to-test comparability. Erythromycin A was used for this purpose.
After incubation, each plate was visually inspected. The minimum inhibitory concentration (MIC) was defined as the lowest concentration of drug yielding no growth, a slight haze, or sparsely isolated colonies on the inoculum spot as compared to the growth control.

[1] = Candida albicans CCH 442 (code TT)
[2] = Enterococcus faecism ATCC 8043 (code II)
[3] = Escherichia coli DC-2 (code SS)
[4] = Escherichia coli JUHL (code QQ)
[5] = Haemophilis influenzae DILL AMP R (code WW)
[6] = Micrococcus luteus ATCC 4698 (code PP)
[7] = Micrococcus luteus ATCC 9341 (code OO)
[8] = Mycobacterium smegmatis ATCC 114 (code UU)
[9] = Nocardia Asteroides ATCC9970 (code VV)
[10] = Staphylococcus aureus 1775 (code GG)
[11] = Staphylococcus aureus A5177 (code BB)
[12] = Staphylococcus aureus A-5278 (code CC)
[13] = Staphylococcus aureus ATCC 6538P (code AA)
[14] = Staphylococcus aureus CMX 553 (code FF)
[15] = Staphylococcus aureus CMX 642A (code DD)
[16] = Staphylococcus aureus NCTC10649M (code EE)
[17] = Staphylococcus epidermidis 3519 (code HH)
[18] = Streptococcus Pneumonia 5649 (code ZZA)
[19] = Streptococcus Pneumonia 5979 (code ZZ)
[20] = Streptococcus Pneumonia ATCC6303 (code XX)
[21] = Streptococcus Pneumonia GYR 1171 (code YY)
[22] = Streptococcus agalactiae CMX 508 (code KK)
[23] = Streptococcus bovis A-5169 (code JJ)
[24] = Streptococcus pyogenes 930 (code MM)
[25] = Streptococcus pyogenes EES61 (code LL)
[26] = Streptococcus pyogenes PIU 2548 (code NN)

## CC[C@H]1OC(=O)[C@H](C)C(=O)[C@H](C)[C@@H](O[C@@H]2O[C@H](C)C[C@H](N(C)C)[C@H]2O)[C@@](C)(OCC=Cc2cnc3ccccc3c2)C[C@@H](C)C(=O)[C@H](C)[C@H]2N(N)C(=O)O[C@]12C [Example 263, Compound of Formula (IX): L is CO, T is N(NH2), R is —CH2CH═CH-(3-quinolyl)]
Organism code AA
  MIC: 0.1 µg/mL
Organism code BB
  MIC: 0.1 µg/mL
Organism code CC
  MIC: > 100 µg/mL
Organism code DD
  MIC: 0.1 µg/mL
Organism code EE
  MIC: 0.1 µg/mL
Organism code FF
  MIC: 0.05 µg/mL
Organism code GG
  MIC: > 100 µg/mL
Organism code HH
  MIC: 0.1 µg/mL
Organism code II
  MIC: 0.01 µg/mL
Organism code JJ
  MIC: 0.01 µg/mL
Organism code KK
  MIC: 0.02 µg/mL
Organism code LL
  MIC: 0.02 µg/mL
Organism code MM
  MIC: 50 µg/mL
Organism code NN
  MIC: 0.2 µg/mL
Organism code OO
  MIC: 0.02 µg/mL
Organism code PP
  MIC: 0.2 µg/mL
Organism code QQ
  MIC: > 100 µg/mL
Organism code RR
  MIC: 0.78 µg/mL
Organism code SS
  MIC: > 100 µg/mL
Organism code TT
  MIC: > 100 µg/mL
Organism code UU
  MIC: 0.78 µg/mL
Organism code VV
  MIC: 0.2 µg/mL
Organism code WW
  MIC: 4 µg/mL
Organism code XX
  MIC: 0.015 µg/mL
Organism code YY
  MIC: 0.015 µg/mL
Organism code ZZ
  MIC: > 128 µg/mL
Organism code ZZA
  MIC: 0.25 µg/mL

## C=CCOC1(C)CC(C)C(=O)C(C)C2N(CC=C)C(=O)OC2(C)C(CC)OC(=O)C(C)C(=O)C(C)C1OC1OC(C)CC(N(C)C)C1O (centres unmarked) [Example 183, Compound of Formula (IX): L is CO, T is N (CH2CH═CH2), R is —CH2CH═CH2]
[1]
  MIC: > 100 µg/mL
[2]
  MIC: 3.1 µg/mL
[3]
  MIC: > 100 µg/mL
[4]
  MIC: > 100 µg/mL
Escherichia coli SS (code RR)
  MIC: 25 µg/mL
[5]
  MIC: > 128 µg/mL
[6]
  MIC: 25 µg/mL
[7]
  MIC: 6.2 µg/mL
[8]
  MIC: > 100 µg/mL
[9]
  MIC: 1.56 µg/mL
[10]
  MIC: > 100 µg/mL
[11]
  MIC: 25 µg/mL
[12]
  MIC: > 100 µg/mL
[13]
  MIC: 25 µg/mL
[14]
  MIC: 25 µg/mL
[15]
  MIC: 25 µg/mL
[16]
  MIC: 25 µg/mL
[17]
  MIC: 25 µg/mL
[18]
  MIC: 2 µg/mL
[19]
  MIC: > 128 µg/mL
[20]
  MIC: 2 µg/mL
[21]
  MIC: 2 µg/mL
[22]
  MIC: 1.56 µg/mL
[23]
  MIC: 0.78 µg/mL
[24]
  MIC: > 100 µg/mL
[25]
  MIC: 1.56 µg/mL
[26]
  MIC: 3.1 µg/mL

## CC[C@H]1OC(=O)[C@H](C)C(=O)[C@H](C)[C@@H](O[C@@H]2O[C@H](C)C[C@H](N(C)C)[C@H]2O)[C@@](C)(OCC=Cc2ccc(OC)cc2)C[C@@H](C)C(=O)[C@H](C)[C@@H](O)[C@]1(C)O [Example 16, Compound of Formula (VIII): X is O, R is —CH2CH═CH-(4-methoxyphenyl)]
[1]
  MIC: > 100 µg/mL
[2]
  MIC: 0.78 µg/mL
[3]
  MIC: > 100 µg/mL
[4]
  MIC: > 100 µg/mL
Escherichia coli SS (code RR)
  MIC: 6.2 µg/mL
[5]
  MIC: 128 µg/mL
[6]
  MIC: 0.78 µg/mL
[7]
  MIC: 0.2 µg/mL
[8]
  MIC: 3.2 µg/mL
[9]
  MIC: 1.56 µg/mL
[10]
  MIC: > 100 µg/mL
[11]
  MIC: 1.56 µg/mL
[12]
  MIC: > 100 µg/mL
[13]
  MIC: 1.56 µg/mL
[14]
  MIC: 1.56 µg/mL
[15]
  MIC: 1.56 µg/mL
[16]
  MIC: 1.56 µg/mL
[17]
  MIC: 1.56 µg/mL
[18]
  MIC: 2 µg/mL
[19]
  MIC: 128 µg/mL
[20]
  MIC: 1 µg/mL
[21]
  MIC: 0.25 µg/mL
[22]
  MIC: 0.39 µg/mL
[23]
  MIC: 0.2 µg/mL
[24]
  MIC: > 100 µg/mL
[25]
  MIC: 0.39 µg/mL
[26]
  MIC: 0.78 µg/mL

## CCC1OC(=O)C(C)C(=O)C(C)C(OC2OC(C)CC(N(C)C)C2O)C(C)(OCC=Cc2ccc3ncc(-c4cccs4)cc3c2)CC(C)C(=O)C(C)C2NC(=O)OC12C (centres unmarked) [Example 275, Compound of Formula (IX): L is CO, T is NH2, R is —CH2CH═CH-(3-(2-thiphenyl)-6-quinolyl)]
Organism code AA
  MIC: 0.2 µg/mL
Organism code BB
  MIC: 0.2 µg/mL
Organism code CC
  MIC: > 100 µg/mL
Organism code DD
  MIC: 0.2 µg/mL
Organism code EE
  MIC: 0.2 µg/mL
Organism code FF
  MIC: 0.2 µg/mL
Organism code GG
  MIC: > 100 µg/mL
Organism code HH
  MIC: 0.2 µg/mL
Organism code II
  MIC: 0.1 µg/mL
Organism code JJ
  MIC: 0.01 µg/mL
Organism code KK
  MIC: 0.05 µg/mL
Organism code LL
  MIC: 0.02 µg/mL
Organism code MM
  MIC: 12.5 µg/mL
Organism code NN
  MIC: 0.2 µg/mL
Organism code OO
  MIC: 0.02 µg/mL
Organism code PP
  MIC: 0.2 µg/mL
Organism code QQ
  MIC: > 100 µg/mL
Organism code RR
  MIC: 0.78 µg/mL
Organism code SS
  MIC: > 100 µg/mL
Organism code TT
  MIC: > 100 µg/mL
Organism code UU
  MIC: 0.39 µg/mL
Organism code VV
  MIC: 0.2 µg/mL
Organism code WW
  MIC: 8 µg/mL
Organism code XX
  MIC: 0.03 µg/mL
Organism code YY
  MIC: 0.03 µg/mL
Organism code ZZ
  MIC: 4 µg/mL
Organism code ZZA
  MIC: 0.5 µg/mL

## CC[C@H]1OC(=O)[C@H](C)C(=O)[C@H](C)[C@@H](O[C@@H]2O[C@H](C)C[C@H](N(C)C)[C@H]2O)[C@@](C)(OCC=Cc2ccccc2)C[C@@H](C)C(=O)[C@H](C)[C@H]2OC(=O)O[C@@]21C [Example 72, Compound of Formula (IX): L is CO, T is O, R is —CH2CH═CH-Phenyl]
[1]
  MIC: > 100 µg/mL
[2]
  MIC: 0.05 µg/mL
[3]
  MIC: > 100 µg/mL
Escherichia coli SS (code RR)
  MIC: 0.78 µg/mL
[5]
  MIC: 8 µg/mL
[6]
  MIC: 0.1 µg/mL
[7]
  MIC: 0.01 µg/mL
[8]
  MIC: 0.78 µg/mL
[9]
  MIC: 0.1 µg/mL
[10]
  MIC: 100 µg/mL
[11]
  MIC: 0.1 µg/mL
[12]
  MIC: > 100 µg/mL
[13]
  MIC: 0.1 µg/mL
[14]
  MIC: 0.2 µg/mL
[15]
  MIC: 0.1 µg/mL
[16]
  MIC: 0.1 µg/mL
[17]
  MIC: 0.1 µg/mL
[18]
  MIC: 0.5 µg/mL
[19]
  MIC: 64 µg/mL
[20]
  MIC: 0.06 µg/mL
[21]
  MIC: 0.06 µg/mL
[22]
  MIC: 0.01 µg/mL
[23]
  MIC: 0.01 µg/mL
[24]
  MIC: 50 µg/mL
[25]
  MIC: < 0.005 µg/mL
[26]
  MIC: 0.2 µg/mL

## CCC1OC(=O)C(C)C(=O)C(C)C(OC2OC(C)CC(N(C)C)C2O)C(C)(OCC=Cc2ccc(C)c3ccccc23)CC(C)C(=O)C(C)C2NC(=O)OC12C (centres unmarked) [Example 276, Compound of Formula (IX): L is CO, T is NH2, R is —CH2CH═CH-(4-methylnaphthyl)]
Organism code AA
  MIC: 0.39 µg/mL
Organism code BB
  MIC: 0.78 µg/mL
Organism code CC
  MIC: 50 µg/mL
Organism code DD
  MIC: 0.39 µg/mL
Organism code EE
  MIC: 0.78 µg/mL
Organism code FF
  MIC: 0.78 µg/mL
Organism code GG
  MIC: 25 µg/mL
Organism code HH
  MIC: 0.78 µg/mL
Organism code II
  MIC: 0.2 µg/mL
Organism code JJ
  MIC: 0.02 µg/mL
Organism code KK
  MIC: 0.1 µg/mL
Organism code LL
  MIC: 0.02 µg/mL
Organism code MM
  MIC: 25 µg/mL
Organism code NN
  MIC: 0.39 µg/mL
Organism code OO
  MIC: 0.1 µg/mL
Organism code PP
  MIC: 0.39 µg/mL
Organism code QQ
  MIC: > 100 µg/mL
Organism code RR
  MIC: 6.2 µg/mL
Organism code SS
  MIC: > 100 µg/mL
Organism code TT
  MIC: > 100 µg/mL
Organism code UU
  MIC: 0.78 µg/mL
Organism code VV
  MIC: 1.56 µg/mL
Organism code WW
  MIC: 8 µg/mL
Organism code XX
  MIC: 0.125 µg/mL
Organism code YY
  MIC: 0.125 µg/mL
Organism code ZZ
  MIC: 16 µg/mL
Organism code ZZA
  MIC: 0.5 µg/mL

## CC[C@H]1OC(=O)[C@H](C)C(=O)[C@H](C)[C@@H](O[C@@H]2O[C@H](C)C[C@H](N(C)C)[C@H]2O)[C@@](C)(OCC=NOCc2ccccc2)C[C@@H](C)C(=O)[C@H](C)[C@H]2NC(=O)O[C@@]21C [Example 229, Compound of Formula (IX): L is CO, T is NH, R is —CH2CH═NOCH2(phenyl)]
Organism code AA
  MIC: 0.2 µg/mL
Organism code BB
  MIC: 0.2 µg/mL
Organism code CC
  MIC: > 100 µg/mL
Organism code DD
  MIC: 0.2 µg/mL
Organism code EE
  MIC: 0.2 µg/mL
Organism code FF
  MIC: 0.2 µg/mL
Organism code GG
  MIC: > 100 µg/mL
Organism code HH
  MIC: 0.2 µg/mL
Organism code II
  MIC: 0.05 µg/mL
Organism code JJ
  MIC: ≤ 0.005 µg/mL
Organism code KK
  MIC: 0.02 µg/mL
Organism code LL
  MIC: 0.01 µg/mL
Organism code MM
  MIC: 50 µg/mL
Organism code NN
  MIC: 0.2 µg/mL
Organism code OO
  MIC: 0.02 µg/mL
Organism code PP
  MIC: 0.05 µg/mL
Organism code QQ
  MIC: > 100 µg/mL
Organism code RR
  MIC: 0.39 µg/mL
Organism code SS
  MIC: > 100 µg/mL
Organism code TT
  MIC: > 100 µg/mL
Organism code UU
  MIC: 1.56 µg/mL
Organism code VV
  MIC: 0.2 µg/mL
Organism code WW
  MIC: 2 µg/mL
Organism code XX
  MIC: ≤ 0.004 µg/mL
Organism code YY
  MIC: ≤ 0.004 µg/mL
Organism code ZZ
  MIC: > 128 µg/mL
Organism code ZZA
  MIC: 0.125 µg/mL
